The values that follow come from patent US8980944B2 (Gemmus Pharma Inc., priority 2006, dated 2015).

Values joined by “and” are separate entries in the source; they are usually repeats but may differ in a detail not shown here. Equal values may be shown once.

The test system of experiment [1] is TNFα. Nature of the experiment: Poly(I:C)-stimulated human peripheral blood lymphocytes, TNFα release (ELISA). (An ELISA detects its analyte on a solid surface through an enzyme-linked reagent.)
Experiment [2] relates to TNFα. The experiment can be described thus: TNFα release from human monocyte-derived dendritic cells activated with LPS, CD40 ligand or CpG-DNA (ELISA). Format: cell-based. As to conditions: 1 μM; for TNFα in culture supernatant: 18 hours. On the procedure:
Human donor monocyte-derived dendritic cells were cultured in RPMI-1640 containing 10% fetal bovine serum for six days in the presence of 10 ng/mL IL-4 and 200 ng/mL GM-CSF. The cells were activated with various activation stimuli: 10 ng/mL LPS (Sigma), 5 μg/mL Recombinant human CD-40 ligand (R&D Systems), or 5 μM Human CpG-DNA (HyCult Biotechnology) in the presence of prostaglandin E2 (PGE2) (1 μM), vehicle control (DMSO) or test substances (1 μM) for 18 hours. The levels of cell culture supernatant TNFα for individual donors was measured by commercial ELISA kits.

Experiment [3] relates to TNFα. The experiment can be described thus: Poly(I:C)-stimulated human monocyte-derived dendritic cells, TNFα release (ELISA). Format: cell-based. As to conditions: Poly IC-stimulated monocyte-derived dendritic cells, one micromolar, 18 hours.
In experiment [4] the test system is IL-12. To be noted: DC activated in the presence of PGE2; Hilkens et al. 1996; cited from earlier work.
For experiment [5], the system named is IL-12. The experiment can be described thus: LPS-stimulated human monocyte-derived dendritic cells, IL-12 release (ELISA). As to conditions: 1 μM; human monocyte-derived dendritic cells, LPS stimulation; individual donors 1-4.
In experiment [6] the test system is H5N1 influenza virus. To be noted: mice infected with H5N1 influenza virus, treated; cited from earlier work.
The mark [7] stands for this setting: CD40 ligand 5 μg/mL, Donor 3, Vehicle 567.1.
Setting [8] is: CD40 ligand 5 μg/mL, Donor 4, Vehicle 546.3.
[9] abbreviates: CD40 ligand 5 μg/mL, Donor 6, Vehicle 541.8.
Setting [10] is: CpG 5 μM, Donor 1, Vehicle 2155.9.
Setting [11] is: CpG 5 μM, Donor 3, Vehicle 1340.7.
Where [12] appears, read: CpG 5 μM, Donor 6, Vehicle 467.8.
The mark [13] stands for this setting: LPS 10 ng/mL, Donor 4, Vehicle 3566.9.
The mark [14] stands for this setting: LPS 10 ng/mL, Donor 6, Vehicle 10750.1.

One may read the inhibition as how much of the control response was suppressed. On to `CC#CCC(C)[C@H](O)/C=C/[C@@H]1[C@H]2c3cccc(CCCC(=O)O)c3O[C@H]2C[C@H]1O` (relative stereo) [Beraprost, (+/−)-(1R*,2R*,3 as*,8bS*)-2,3,3a,8b-tetrahydro-2-hydroxy-1-[(E)-(3S*)-3-hydroxy-4-methyl-1-octen-6-ynyl]-1H-cyclopenta[b]benzofuran-5-butyrate], for which the “TNFα percent inhibition from untreated control” value in experiment [1] (Beraprost 0.04 nM, Poly IC-stimulated peripheral blood lymphocytes, individual donors 1-2) is 4%; in experiment [1] (Beraprost 0.11 nM, Poly IC-stimulated peripheral blood lymphocytes, individual donors 1-2) it was 26%; in experiment [1] (Beraprost 1 nM, Poly IC-stimulated peripheral blood lymphocytes, individual donors 1-2) it was 11% and 28%; in experiment [1] (Beraprost 3 nM, Poly IC-stimulated peripheral blood lymphocytes, individual donors 1-2), 36% and 11%; in experiment [1] (Beraprost 9 nM, Poly IC-stimulated peripheral blood lymphocytes, individual donors 1-2) it was 35%; in experiment [1] (Beraprost 250 nM, Poly IC-stimulated peripheral blood lymphocytes, individual donors 1-2), 59%. The inhibition at 0.00011 µM in experiment [1] (Homo sapiens, Lymphocyte, read-out: TNFα percent inhibition from untreated control, Beraprost 0.11 nM, Poly IC-stimulated peripheral blood lymphocytes, individual donors 1-2) was found to be 19%. Also, the inhibition at 0.009 µM in experiment [1] (Homo sapiens, Lymphocyte, read-out: TNFα percent inhibition from untreated control, Beraprost 9 nM, Poly IC-stimulated peripheral blood lymphocytes, individual donors 1-2) worked out at 46%. The inhibition at 0.083 µM in experiment [1] (Homo sapiens, Lymphocyte, read-out: TNFα percent inhibition from untreated control, Beraprost 83 nM, Poly IC-stimulated peripheral blood lymphocytes, individual donors 1-2) stood at 56%. Besides, the inhibition at 0.25 µM in experiment [1] (Homo sapiens, Lymphocyte, read-out: TNFα percent inhibition from untreated control, Beraprost 250 nM, Poly IC-stimulated peripheral blood lymphocytes, individual donors 1-2) stood at 67%. Moreover, the “Poly(I:C)-induced TNFα” value in experiment [1] (peripheral blood lymphocytes) is on record as “significant descrease”.
Take `CCCCC[C@H](O)/C=C/[C@H]1[C@H](O)CC(=O)[C@@H]1C/C=C\CCCC(=O)O` [PGE2, prostaglandin E2, reference compound]: the “TNFα in culture supernatant” value in experiment [2] (setting [7]) amounted to 147.9 pg/mL; in experiment [2] (setting [8]) it was 87.0 pg/mL; in experiment [2] (setting [9]), 54.2 pg/mL; in experiment [2] (setting [10]), 104.5 pg/mL; in experiment [2] (setting [11]) it was 70.0 pg/mL; in experiment [2] (setting [12]), 106.2 pg/mL. Further, the “TNFα in culture supernatant” value in experiment [2] (setting [13]) came out at 0.0 pg/mL; in experiment [2] (setting [14]), 174.8 pg/mL. In addition, the “TNFα percent inhibition from untreated control” value in experiment [3] (Donor 1) worked out at 96%; in experiment [3] (Donor 2), 63%; in experiment [3] (Donor 3), 81%; in experiment [3] (Donor 4), 29%. Also, the “IL-12 production by dendritic cells” value in experiment [4] is “impaired IL-12 production”. The “Percent inhibition of IL-12 compared to uninhibited control” value in experiment [5] was 80% and 33% and 83% and 72%.
With `CCOC(=O)C1=C[C@@H](OC(CC)CC)[C@H](NC(C)=O)[C@@H](N)C1` [Tamiflu, oseltamivir], the “survival of infected mice” value in experiment [6] is “survived”.
`CCC1(CC/C=C/C2C(C/C=C\CCCC(=O)O)[C@H](Cl)C[C@H]2O)CCCC1` (stereo partly drawn) [Test Substance 1, (5Z,13E)-(9R,11R)-9-chloro-11-hydroxy-17,17-tetramethylene-20-nor-5,13-prostadienoic acid]: the “cytokine levels measured in the culture supernatant” value in experiment [2] (LPS, CD40 ligand or CpG activation) is listed as “led to an inhibition in the cytokine levels”. Further, the “TNFα in culture supernatant” value in experiment [2] (setting [7]) was 274.3 pg/mL; in experiment [2] (setting [8]) it was 226.8 pg/mL; in experiment [2] (setting [9]), 142.4 pg/mL; in experiment [2] (setting [10]), 291.3 pg/mL; in experiment [2] (setting [11]), 599.4 pg/mL; in experiment [2] (setting [12]) it was 115.9 pg/mL. Besides, the “TNFα in culture supernatant” value in experiment [2] (setting [13]) came out at 643.6 pg/mL; in experiment [2] (setting [14]), 753.7 pg/mL.
